Laboratory results reported in patent US6486199B1, “Spiro and dispiro 1,2,4-trioxolane antimalarials” (Medicines for Malaria Venture MMV International Centre …, priority 2001, dated 2002).
In brackets after ≈: the same amount, converted by molar mass. Like-named read-outs stand apart in the source and are kept apart here. Marks after values point to notes of the source that are not given here.

What was measured:
[1] = system: ANKA strain of P. Berghei; test: single dose STI in vivo screen in infected Moro SPF mice; conditions: for antimalarial activity, overall assessment: overall judgement of in vitro and in vivo data of Table 2
NB2a cell line = test: neurotoxicity against the NB2a cell line; type: cell-based
[2] = system: chloroquine-resistant K1 strain of P. falciparum; test: in vitro screen against chloroquine-resistant K1 strain of P. falciparum; type: cell-based; conditions: Plasmodium falciparum
[3] = system: chloroquine-sensitive NF54 strain of P. falciparum; test: in vitro screen against chloroquine-sensitive NF54 strain of P. falciparum; type: cell-based; conditions: Plasmodium falciparum; in vitro, NF54 strain; read-out: IC50 (ng/ml) NF54
P. berghei [4] = test: 1-day Peters test against P. berghei in vivo; conditions: 1 day; for ED50 / ED90: Plasmodium berghei, 24 h; for ED90: read-out: P. berghei (1 day) ED90 po
[5] = system: 21-day-old schistosomules of Schistosoma mansoni; test: effect on 21-day-old schistosomules in mice; type: in vivo; conditions: single 200 mg/kg per os; for FWR (%): female worm reduction rate; for Mean female worm burden: mean ± standard deviation; for TWR (%): total worm reduction rate
Experimental: […] Each group was treated per os with OZ compounds at a single dose of 200 mg/kg. Untreated mice served as the control. All groups were killed 4 weeks after treatment and the liver and intestine were removed and separated. The liver and intestine were compressed and alive male and female worms could be seen and counted. The effect of the compounds was evaluated by mean total and female worm burden.

[6] = system: adult schistosomes (49-day-old) of Schistosoma mansoni; test: effect on adult schistosomes (49-day-old) in mice; type: in vivo; conditions: single 400 mg/kg per os
Experimental: Mice were infected with 100 Schistosoma mansoni cercariae […]. Each group was treated per os with OZ compounds at a single dose of 400 mg/kg. Untreated mice served as the control. All groups were killed 4 weeks after treatment and the liver and intestine were removed and separated. The liver and intestine were compressed and alive male and female worms could be seen and counted.

[7] = differential scanning calorimetry (DSC), thermal stability; type: physicochemical; conditions: thermal decomposition
[8] = system: adult schistosomes (49-day-old) of Schistosoma mansoni; test: effect on adult schistosomes (49-day-old) in mice; type: in vivo; conditions: dose used was 200 mg/kg
P. berghei [9] = test: 4-day Peters test against P. berghei in vivo; conditions: 4 day; for ED50: Plasmodium berghei, 96 h
parasitemia = test: onset of drug action and recrudescence after single oral dose; type: in vivo
Experimental: The reduction of parasitemia was monitored 12 h after treatment, and the time of recrudescence was assessed by daily blood smears for 14 days, followed by intermittent assessment for up to 30 days.

[10] = po, read-out: P. berghei (1 day) ED50 po
[11] = percent reduction in parasitemia day 3 post-infection, single 100 mg/kg po
[12] = percent reduction in parasitemia day 3 post-infection, single 100 mg/kg sc
[13] = single 100 mg/kg po, survival to day 30 = cure
[14] = single 100 mg/kg sc, survival to day 30 = cure

Structure (SMILES)	antimalarial activity, overall assessment [1]	IC50 (NB2a cell line; NB2a cell line)	Survival (days) po ([1]; single 10 mg/kg po)	ED50 (P. berghei [4]; [10])	ED90 (P. berghei [4]; po)	IC50 (NB2a cell line)	Activity (%) po [1, 11]	Activity (%) sc [1, 12]	Survival (days) po [1, 13]	Survival (days) sc [1, 14]	FWR (%) [5]	Mean female worm burden [5]	TWR (%) [5]	Tm dec. (° C.) [7]	further results
CCOC(=O)CCC1CCCCC12OOC1(O2)C2CC3CC(C2)CC1C3 (stereo not shown) [OZ08, Adamantane-2-spiro-3′-6′-[2′-(ethoxycarbonyl)ethyl]-1′,2′,4′-trioxaspiro[4.5]decane]	more active	42 µM													
C[C@H]1[C@@H](O)O[C@@H]2O[C@@]3(C)CC[C@H]4[C@H](C)CC[C@@H]1[C@@]24OO3 [Dihydroart, dihydroartemisinin, reference compound]			6.8/NA days	2.9 mg/kg	12 mg/kg	0.22 µM									IC50 ([2]; in vitro, K1 strain, read-out: IC50 (ng/ml) K1): 0.22 ng/mL (≈ 0.774 nM); IC50 [3]: 0.23 ng/mL (≈ 0.809 nM); inhibition in vivo at 10 mg/kg ([1]; Plasmodium berghei, 72 h, percent reduction in parasitemia day 3 post-infection, single 10 mg/kg po, read-out: Activity (%) po): 80%
C1C2CC3CC1CC(C2)C31OOC2(O1)C1CC3CC(C1)CC2C3 (stereo not shown) [OZ04, Adamantane-2-spiro-3′-1′,2′,4′-trioxolane-5′-spiro-2″-adamantane]	completely inactive	44 µM					0/0%	0/0%	5.3/5.3 days	5.3/5.3 days	7%	11.6 ± 3.2^a	7%	150.8 °C	Percentage of dead worm [6]: 0; Total dead worm [6]: 0; TWR (%) ([6]; total worm reduction rate): 0%; Mean total worm burden ([6]; x ± SD): 37.6 ± 13.4
O=C1C2C3CC4C5C3C1C5C1(OOC3(O1)C1CC5CC(C1)CC3C5)C42 (stereo not shown) [OZ14, Adamantane-2-spiro-3′-1′,2′,4′-trioxolane-5′-spiro-8″-11″-oxopentacyclo[5.4.0.0^2″,6″.0^3″,10″.0^5″,9″]undecane]											0%	12.4 ± 4.2	7%	113.3 °C	Percentage of dead worm [8]: 0; Total dead worm [8]: 0; TWR (%) ([8]; total worm reduction rate): 0%; Mean total worm burden ([8]; x ± SD): 44.5 ± 13.2
C1CCC2(CC1)OOC1(O2)C2CC3CC(C2)CC1C3 (stereo not shown) [OZ03, Adamantane-2-spiro-3′-1′,2′,4′-trioxaspiro[4.5]decane]	more active		7.2 days	5 mg/kg	8.8 mg/kg	13 µM	100/100%	100/100%	14.3 days	28 days					IC50 ([2]; K1, read-out: IC50 (ng/ml) K1): 1.2 ng/mL (≈ 4.54 nM); Activity (%) po ([1]; percent reduction in parasitemia day 3 post-infection, single 10 mg/kg po): 94%; Activity (%) sc ([1]; percent reduction in parasitemia day 3 post-infection, single 10 mg/kg sc): 100%; Survival (days) sc ([1]; single 10 mg/kg sc): 11.9 days; P. berghei (1 day) ED90 sc (P. berghei [4]; sc): 2.2 mg/kg; ED50 (P. berghei [4]; sc, read-out: P. berghei (1 day) ED50 sc): 0.7 mg/kg; P. berghei (4 day) ED90 po (P. berghei [9]; po): 2.7 mg/kg; P. berghei (4 day) ED90 sc (P. berghei [9]; sc): 1.1 mg/kg; ED50 (P. berghei [9]; po, read-out: P. berghei (4 day) ED50 po): 1 mg/kg; ED50 (P. berghei [9]; sc, read-out: P. berghei (4 day) ED50 sc): 0.6 mg/kg; duration of action compared with artemether (parasitemia; single 100 mg/kg po): comparable; Recrudescence (>5% parasitemia) occurs on day (parasitemia; single 100 mg/kg po on day +3 post-infection): 7 days
